We go through one molecule from ChEMBL document CHEMBL3044556, “Managing weeds with drip-applied herbicides in tomato” (2008).

Assay type in all cases: functional
Test [1] concerns Boerhavia erecta. The test is described as follows: Pre-emergence herbicidal activity against Boerhavia erecta in tomato field assessed as number of weeds at 2.28 kg/ha applied through drip lines/backpack-spray on week 3 to 4 before transplanting measured 7 weeks after treatment (reference value: 9 plants/m2).
The test system of test [2] is Eleusine indica. The test is described as follows: Pre-emergence herbicidal activity against Eleusine indica in tomato field assessed as number of extra-large fruits at 2.28 kg/ha applied through drip lines/backpack-spray on week 3 to 4 before transplanting (reference value: 21.3 x 10 '3 ha). The note with it: pooled result: one value given for 8 cell lines, strains, targets or settings.

The test system of test [3] is Corynandra viscosa. The test is described as follows: Pre-emergence herbicidal activity against Cleome viscosa in tomato field assessed as number of weeds at 2.28 kg/ha applied through drip lines/backpack-spray on week 3 to 4 before transplanting measured 7 weeks after treatment (reference value: 9 plants/m2).
For test [4], the system named is Trianthema. The experiment in a line: Pre-emergence herbicidal activity against Trianthema spp. in tomato field assessed as number of weeds at 2.28 kg/ha applied through drip lines/backpack-spray on week 3 to 4 before transplanting measured 7 weeks after treatment (reference value: 9 plants/m2).
Test [5] has as its system Poaceae. The experiment in a line: Pre-emergence herbicidal activity against Poaceae (grass family) in tomato field assessed as number of weeds at 2.28 kg/ha applied through drip lines/backpack-spray on week 3 to 4 before transplanting measured 7 weeks after treatment (reference value: 6 plants/m2).
Test [6] concerns Cyperus. The experiment in a line: Pre-emergence herbicidal activity against Cyperus in tomato field assessed as number of weeds at 2.28 kg/ha applied through drip lines/backpack-spray on week 3 to 4 before transplanting measured 7 weeks after treatment (reference value: 3 plants/m2).
Test [7] relates to Eleusine indica. The experiment in a line: Pre-emergence herbicidal activity against Eleusine indica in tomato field assessed as number of weeds at 2.28 kg/ha applied through drip lines/backpack-spray on week 3 to 4 before transplanting measured 12 weeks after treatment (reference value: 9 plants/m2).
Test [8] concerns Digitaria. The test is described as follows: Pre-emergence herbicidal activity against Digitaria spp. in tomato field assessed as number of weeds at 2.28 kg/ha applied through drip lines/backpack-spray on week 3 to 4 before transplanting measured 7 weeks after treatment (reference value: 9 plants/m2).
In test [9] the test system is Eleusine indica. The test is described as follows: Pre-emergence herbicidal activity against Eleusine indica in tomato field assessed as number of weeds at 2.28 kg/ha applied through drip lines/backpack-spray on week 3 to 4 before transplanting measured 7 weeks after treatment (reference value: 9 plants/m2).
The subject of test [10] is Poaceae. The test is described as follows: Pre-emergence herbicidal activity against Poaceae (grass family) in tomato field assessed as number of weeds at 2.28 kg/ha applied through drip lines/backpack-spray on week 3 to 4 before transplanting measured 12 weeks after treatment (reference value: 8 plants/m2).
Test [11] relates to Cyperus. The experiment in a line: Pre-emergence herbicidal activity against Cyperus in tomato field assessed as number of weeds at 2.28 kg/ha applied through drip lines/backpack-spray on week 3 to 4 before transplanting measured 12 weeks after treatment (reference value: 5 plants/m2).
Test [12] has as its system Portulaca oleracea. The experiment in a line: Pre-emergence herbicidal activity against Portulaca oleracea in tomato field assessed as number of weeds at 2.28 kg/ha applied through drip lines/backpack-spray on week 3 to 4 before transplanting measured 12 weeks after treatment (reference value: 9 plants/m2).
The subject of test [13] is Trianthema. The experiment in a line: Pre-emergence herbicidal activity against Trianthema spp. in tomato field assessed as number of weeds at 2.28 kg/ha applied through drip lines/backpack-spray on week 3 to 4 before transplanting measured 12 weeks after treatment (reference value: 9 plants/m2).
Test [14] deals with Echinochloa colona. The experiment in a line: Pre-emergence herbicidal activity against Echinochloa colona in tomato field assessed as number of weeds at 2.28 kg/ha applied through drip lines/backpack-spray on week 3 to 4 before transplanting measured 7 weeks after treatment (reference value: 9 plants/m2).
Test [15] has as its system Amaranthus dubius. The test is described as follows: Pre-emergence herbicidal activity against Amaranthus dubius in tomato field assessed as number of weeds at 2.28 kg/ha applied through drip lines/backpack-spray on week 3 to 4 before transplanting measured 12 weeks after treatment (reference value: 9 plants/m2).
Test [16] deals with Amaranthus dubius. The test is described as follows: Pre-emergence herbicidal activity against Amaranthus dubius in tomato field assessed as number of weeds at 2.28 kg/ha applied through drip lines/backpack-spray on week 3 to 4 before transplanting measured 7 weeks after treatment (reference value: 9 plants/m2).
In test [17] the test system is Amaranthus dubius. The test is described as follows: Pre-emergence herbicidal activity against Amaranthus dubius in tomato field assessed as extra-large fruit weight at 2.28 kg/ha applied through drip lines/backpack-spray on week 3 to 4 before transplanting (reference value: 7.3 t/ha). The note with it: pooled result: one value given for 8 cell lines, strains, targets or settings.

Test [18] concerns Portulaca oleracea. The experiment in a line: Pre-emergence herbicidal activity against Portulaca oleracea in tomato field assessed as number of weeds at 2.28 kg/ha applied through drip lines/backpack-spray on week 3 to 4 before transplanting measured 7 weeks after treatment (reference value: 9 plants/m2).
Test [19] relates to Boerhavia erecta. The experiment in a line: Pre-emergence herbicidal activity against Boerhavia erecta in tomato field assessed as number of weeds at 2.28 kg/ha applied through drip lines/backpack-spray on week 3 to 4 before transplanting measured 12 weeks after treatment (reference value: 9 plants/m2).
The subject of test [20] is Digitaria. The test is described as follows: Pre-emergence herbicidal activity against Digitaria spp. in tomato field assessed as number of weeds at 2.28 kg/ha applied through drip lines/backpack-spray on week 3 to 4 before transplanting measured 12 weeks after treatment (reference value: 9 plants/m2).
The test system of test [21] is Eleusine indica. The experiment in a line: Pre-emergence herbicidal activity against Eleusine indica in tomato field assessed as total fruit weight at 2.28 kg/ha applied through drip lines/backpack-spray on week 3 to 4 before transplanting (reference value: 13.7 t/ha). The note with it: pooled result: one value given for 8 cell lines, strains, targets or settings.

Test [22] deals with Corynandra viscosa. The experiment in a line: Pre-emergence herbicidal activity against Cleome viscosa in tomato field assessed as number of weeds at 2.28 kg/ha applied through drip lines/backpack-spray on week 3 to 4 before transplanting measured 12 weeks after treatment (reference value: 9 plants/m2).
The test system of test [23] is Echinochloa colona. The test is described as follows: Pre-emergence herbicidal activity against Echinochloa colona in tomato field assessed as number of weeds at 2.28 kg/ha applied through drip lines/backpack-spray on week 3 to 4 before transplanting measured 12 weeks after treatment (reference value: 9 plants/m2).
For test [24], the system named is Trianthema. The test is described as follows: Pre-emergence herbicidal activity against Trianthema spp. in tomato field assessed as total number of fruits at 2.28 kg/ha applied through drip lines/backpack-spray on week 3 to 4 before transplanting (reference value: 49.5 x 10 '3 ha). The note with it: pooled result: one value given for 8 cell lines, strains, targets or settings.

As for `CCN(CC)C(=O)C(C)Oc1cccc2ccccc12` (centres undefined) [NAPROPAMIDE], the Activity in the test on Boerhavia erecta [1] is 4 /m2; in the test with Corynandra viscosa [3], 4 /m2; in the test on Trianthema [4], 4 /m2; in the test with Poaceae [5] it was 1 /m2; in the test on Cyperus [6], 6 /m2; in the test on Eleusine indica [7], 7 /m2. For the same molecule, the Activity with Digitaria [8] was 4 /m2; in the test with Eleusine indica [9], 4 /m2; in the test on Poaceae [10], 6 /m2; in the test with Cyperus [11] it was 9 /m2; with Portulaca oleracea [12] it was 7 /m2; with Trianthema [13] it was 7 /m2. Moreover, the Activity with Echinochloa colona [14] was 4 /m2; in the test with Amaranthus dubius [15] it was 7 /m2; with Amaranthus dubius [16] it was 4 /m2; in the test with Amaranthus dubius [17] it was 9.1 tons/ha; in the test on Portulaca oleracea [18], 4 /m2; in the test with Boerhavia erecta [19] it was 7 /m2. For the same molecule, the Activity in the test on Digitaria [20] is 7 /m2; in the test with Eleusine indica [21] it was 16.4 tons/ha; in the test on Corynandra viscosa [22] it was 7 /m2; in the test with Echinochloa colona [23] it was 7 /m2; in the test on Trianthema [24] it was 58.3 10^3 fruits/ha. The fruit count in the test on Eleusine indica [2] was 26.3 10^3 fruits/ha.
